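Each compound was tested at five concentrations against cells in 96-well plates for 48 hours. Here, GI50 denotes the concentration required for 50% inhibition of growth.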 Calls of active or inactive are those of the source. Cut-off read from the data, not from the text of the source: active = GI50 up to about 1.1 µM and inactive = higher.
How the values were obtained:
Assay in all cases: DTP human tumour cell line panel, 48 h
ACHN = test system: ACHN
CCRF-CEM = test system: CCRF-CEM
HOP-62 = test system: HOP-62
IGROV-1 = test system: IGROV-1
K562 = test system: K562
M14 = test system: M14
Malme-3M = test system: Malme-3M
RPMI-8226 = test system: RPMI-8226
SF-295 = test system: SF-295
SK-MEL-28 = test system: SK-MEL-28
SK-MEL-2 = test system: SK-MEL-2
SK-MEL-5 = test system: SK-MEL-5
SN12C = test system: SN12C
SR = test system: SR
UO-31 = test system: UO-31
HCC 2998 = test system: HCC 2998
A498 = test system: A498

Measured: GI50

CO[C@H](c1ccccc1)[C@H](C)N(C)c1ccc2ccccc2c1C1=NC(C)(C)CO1
inactive: ACHN 16 µM | CCRF-CEM 15.4 µM | HOP-62 21 µM | IGROV-1 33.1 µM | K562 11.7 µM | M14 16.5 µM | Malme-3M 16.3 µM | RPMI-8226 15.6 µM | SF-295 15.5 µM | SK-MEL-28 18.3 µM | SK-MEL-2 14.3 µM | SK-MEL-5 88.3 µM | SN12C 18 µM | SR 13.3 µM | UO-31 13.7 µM

C/C(=N/N)c1ccc2[nH]c3c(C)cc([N+](=O)[O-])c(C)c3c2c1
inactive: ACHN 9.38 µM | CCRF-CEM 3.13 µM | HCC 2998 17.5 µM | HOP-62 8.07 µM | K562 2.93 µM | M14 15 µM | Malme-3M 4.33 µM | RPMI-8226 8.97 µM | SF-295 17.1 µM | SK-MEL-28 6.07 µM | SK-MEL-2 11.3 µM | SK-MEL-5 5 µM | SN12C 3.95 µM | SR 5.83 µM | UO-31 10.5 µM

O/N=C1/C(=C/c2ccc(Cl)c(Cl)c2)CCCC1C(NO)c1ccc(Cl)c(Cl)c1 (centres undefined)
inactive: A498 14.4 µM | ACHN 18.4 µM | CCRF-CEM 17.2 µM | HCC 2998 17.1 µM | HOP-62 20.1 µM | IGROV-1 19.9 µM | K562 21.3 µM | M14 17.4 µM | Malme-3M 20 µM | RPMI-8226 17.1 µM | SK-MEL-28 17.9 µM | SK-MEL-2 17.4 µM | SK-MEL-5 18.5 µM | SN12C 17.8 µM | UO-31 18.7 µM

Cc1c(C(=O)CC(=O)C(=O)Nc2ccc(Cl)c(Cl)c2)[n+]([O-])c2ccccc2[n+]1[O-]
inactive: A498 > 100 µM | ACHN 20.3 µM | CCRF-CEM 17.2 µM | HCC 2998 33 µM | HOP-62 64.4 µM | IGROV-1 18.7 µM | K562 23.8 µM | M14 18.1 µM | Malme-3M 18.8 µM | RPMI-8226 20.8 µM | SF-295 41.7 µM | SK-MEL-28 37.9 µM | SK-MEL-2 26.9 µM | SK-MEL-5 19.5 µM | SN12C 23.8 µM | UO-31 55.1 µM

Cc1cc(Cl)cc2c1NC(=O)C2(O)CC(=O)c1ccc(Br)cc1 (centres undefined)
inactive: A498 37.8 µM | ACHN 39.4 µM | CCRF-CEM 18.6 µM | HCC 2998 > 100 µM | HOP-62 > 100 µM | IGROV-1 66.8 µM | K562 21.6 µM | M14 52 µM | Malme-3M > 100 µM | RPMI-8226 35 µM | SF-295 46.9 µM | SK-MEL-28 35.6 µM | SK-MEL-2 > 100 µM | SK-MEL-5 25 µM | SN12C > 77.1 µM | UO-31 > 100 µM

Cc1c(Cl)c2ccccc2n1S(=O)(=O)c1ccccc1
inactive: ACHN 38.1 µM | CCRF-CEM 48.5 µM | HCC 2998 33.6 µM | HOP-62 65.5 µM | IGROV-1 > 100 µM | K562 38.5 µM | M14 37.8 µM | Malme-3M > 100 µM | RPMI-8226 27.8 µM | SF-295 46.5 µM | SK-MEL-28 > 100 µM | SK-MEL-2 28.8 µM | SK-MEL-5 32.4 µM | SR 32.1 µM | UO-31 26.1 µM

COc1ccccc1/C=C/C(=O)c1sc(-c2cccnc2)nc1C
inactive: A498 > 100 µM | ACHN > 100 µM | CCRF-CEM 84.3 µM | HCC 2998 > 100 µM | HOP-62 > 100 µM | IGROV-1 > 100 µM | K562 > 100 µM | Malme-3M > 100 µM | RPMI-8226 26.3 µM | SF-295 46.5 µM | SK-MEL-28 > 100 µM | SK-MEL-2 > 100 µM | SK-MEL-5 47.3 µM | SN12C > 100 µM | UO-31 > 100 µM

O=C1CCC2(CC1)SCCCS2
inactive: A498 > 100 µM | ACHN 40 µM | CCRF-CEM > 100 µM | HCC 2998 > 100 µM | HOP-62 > 100 µM | IGROV-1 > 100 µM | K562 > 100 µM | M14 > 100 µM | Malme-3M > 100 µM | RPMI-8226 > 100 µM | SF-295 > 100 µM | SK-MEL-28 > 100 µM | SK-MEL-2 > 100 µM | SK-MEL-5 > 100 µM | SN12C > 100 µM | UO-31 > 100 µM

Cn1ccnc1CCc1c(Cl)cccc1Cl
inactive: A498 > 100 µM | ACHN > 100 µM | CCRF-CEM > 100 µM | HOP-62 > 100 µM | IGROV-1 > 100 µM | K562 > 100 µM | M14 > 100 µM | Malme-3M > 100 µM | RPMI-8226 > 100 µM | SF-295 > 100 µM | SK-MEL-28 > 100 µM | SK-MEL-2 > 100 µM | SK-MEL-5 > 100 µM | SN12C > 100 µM | SR > 100 µM | UO-31 71.3 µM

O=C1OC(=O)C([Se]c2ccccc2)=C1[Se]c1ccccc1
inactive: A498 > 100 µM | ACHN > 100 µM | CCRF-CEM > 100 µM | HOP-62 > 100 µM | IGROV-1 > 100 µM | K562 > 100 µM | M14 > 100 µM | Malme-3M > 100 µM | RPMI-8226 > 100 µM | SF-295 > 100 µM | SK-MEL-28 > 100 µM | SK-MEL-5 > 100 µM | SN12C > 100 µM | SR > 100 µM

C/C(CC(=O)Nc1ccccc1C)=N/NS(=O)(=O)c1ccc(C)cc1
inactive: A498 > 100 µM | ACHN > 100 µM | CCRF-CEM > 100 µM | HCC 2998 > 100 µM | HOP-62 > 100 µM | IGROV-1 > 100 µM | K562 > 100 µM | M14 > 100 µM | Malme-3M > 100 µM | RPMI-8226 > 100 µM | SF-295 > 100 µM | SK-MEL-28 > 100 µM | SK-MEL-2 > 100 µM | SK-MEL-5 > 100 µM | UO-31 > 100 µM

COc1ccc([N+]2=NC(c3ccc([N+](=O)[O-])cc3)=NN(c3ccccc3)C2)cc1.[O-][Cl+3]([O-])([O-])[O-]
inactive: A498 > 100 µM | ACHN 86.5 µM | CCRF-CEM 21.2 µM | HCC 2998 > 100 µM | HOP-62 > 100 µM | IGROV-1 33.2 µM | K562 28.1 µM | Malme-3M > 100 µM | RPMI-8226 33 µM | SF-295 74.8 µM | SK-MEL-28 > 100 µM | SK-MEL-5 28.4 µM | SN12C > 100 µM | SR 44.2 µM | UO-31 51.5 µM

CC1=C(C(=O)Nc2cc(=O)n(C)c(=O)n2C)C(c2cccc([N+](=O)[O-])c2)C(C(=O)Nc2cc(=O)n(C)c(=O)n2C)=C(C)N1
inactive: A498 49.5 µM | ACHN 89.7 µM | CCRF-CEM > 100 µM | HCC 2998 31.5 µM | HOP-62 > 100 µM | IGROV-1 > 100 µM | K562 72.4 µM | M14 > 100 µM | Malme-3M > 100 µM | RPMI-8226 62.5 µM | SF-295 > 100 µM | SK-MEL-28 > 100 µM | SK-MEL-2 > 100 µM | SK-MEL-5 74.6 µM | SN12C > 100 µM | UO-31 56.1 µM
